Laboratory results as given in US10583141B2, “N-substituted hydroxamic acids with carbon-based leaving groups as efficient HNO donors and uses thereof” (The Johns Hopkins University, priority 2015, dated 2020).
Marks after values point to notes of the source that are not given here.

Assays:
[1] = Stability (half-life of donor decomposition) via 1H NMR protocol; format: physicochemical; settings: 5 mM donor in 10% DMSO-d6, 10% D2O, 80% H2O, phosphate buffer (0.25M) with DTPA (0.2 mM), pH 7.4, 37° C., under argon
From the text: A ^1H NMR spectroscopy protocol was used to measure the half-life of donor decomposition by quantifying donor and the corresponding byproduct as a function of time (Guthrie, D. A.; Ho, A.; Takahashi, C. G.; Collins, A.; Morris, M.; Toscano, J. P. J. Org. Chem. 2015, 80, 1338-1348; and Guthrie, D. A.; Nourian, S.; Takahashi, C. G.; Toscano, J. P. J. Org. Chem. 2015, 80, 1349-1356). Based on distinctive chemical shifts of the compounds of the disclosure and their corresponding byproducts, the decomposition of the compounds of the disclosure and release of their byproduct was easily monitored. Utilizing this assay, the half-lives of particular compounds of the disclosure were determined under physiologically relevant conditions (Table 2).

[2] = Nitroxyl (HNO) production via N2O quantification in the headspace (GC), relative to Angeli's salt; settings: N2O headspace analysis, 0.1 mM, 37° C. (SEM ± 5%; n = 3)
From the text: Nitrous oxide (N2O) is produced via the dimerization and dehydration of HNO, and is the most common marker for nitroxyl production (Fukuto et al., Chem. Res. Toxicol. 18:790-801 (2005)). […] Using either nitrous oxide gas or Angeli's salt (“AS”) as a standard, the relative amounts of N2O released from compounds of the disclosure is examined via gas chromatography (“GC”) headspace analysis.
Another procedure for determining N2O released from compounds of the disclosure is as follows. A Varian CP-3800 instrument equipped with a 1041 injector, electron capture detector, and a 25 m 5 Å molecular sieve capillary column was applied for the analysis of nitrous oxide (N2O). Grade 5.0 nitrogen was used as both the carrier (8 mL/min) and the make-up (22 mL/min) gas. For all the measurements, the column oven temperature was kept constant at 150° C., and the injector oven and the detector oven were held at 200° C. and 300° C., respectively. A 100 μL gastight syringe with a sample-lock was used for all gas injections. Samples were prepared in 6 mL Wheaton Clr headspace vials with volumes pre-measured for sample uniformity (actual vial volume ranges from 5.8-6.3 mL). Vials were charged with 3 mL of phosphate buffer containing the metal chelator, diethylenetriaminepentaacetic acid (DTPA), and fit with rubber septa and 20 mm aluminum seals. The vials were purged with argon and equilibrated for at least 10 minutes at 37° C. in a dry block heater. A 10 mM stock solution of Angeli's salt (AS) was prepared in 10 mM sodium hydroxide, and compounds of the disclosure (10 mM) were prepared in acetonitrile and used immediately after preparation. 30 μL of the stock solutions was transferred into vials using a gastight syringe, yielding final concentrations of 0.1 mM. Substrates were then incubated long enough to ensure complete decomposition and equilibration of N2O with the headspace. For each sample, 60 μL of the headspace was sampled and injected three times using a gastight syringe with a sample lock. The N2O yield was averaged and reported relative to the standard, Angeli's salt. HNO yields were measured either at the half-life of the donor or after complete decomposition of the donor and are reported relative to the standard HNO donor, Angeli's salt, as determined by N2O headspace analysis (SEM±5%; n=3).

[3] = Decomposition kinetics via UV-VIS protocol (growth of pyrazolone byproduct absorbance); format: physicochemical; settings: phosphate buffer; for decomposition (UV-VIS, in words): pH 7.4, 37° C.
Procedure: (§1) A UV-VIS protocol was used to determine the decomposition kinetics of compounds 1, 3, 5 and 6. According to this protocol, decomposition of Compound 5, was monitored by examining the growth of the distinctive absorbance of the pyrazolone byproduct (λ=265 nm) at pH 7.4 and 37° C. in phosphate buffer as a function of pH (Guthrie, D. A., Kim, N. Y., Siegler, M. A.; Moore, C. D., Toscano, J. P. J. Am. Chem. Soc. 2012, 134, 1962-1965; and Guthrie, D. A.; Ho, A.; Takahashi, C. G.; Collins, A., Morris, M.; Toscano, J. P. J. Org. Chem. 2015, 80, 1338-1348). The decomposition of rate is pH-dependent, and based on the experimental kinetic data, the pKa of Compound 5 was estimated to be 10.7. Following this protocol, the decomposition kinetics for compounds […] were determined. […] Thus, the pKa values of Compounds 1 (10.0) and 3 (9.1) in 50% (v/v) aqueous ethanol were measured by titration with NaOH solution.

[4] = pKa by titration with NaOH solution; format: physicochemical; settings: 50% (v/v) aqueous ethanol
Procedure: as §1

[5] = Stability in the presence of a pyrazolone by 1H NMR (mechanistic study); format: physicochemical
Procedure: A ^1H NMR Spectroscopy Protocol was used to confirm the formation of nitroso carbonyls following decomposition of compound 5. In this protocol, 0.5 mM Compound 5 was incubated in the presence of 0.5 mM 3,4-dimethyl-N-phenylpyrazolone in 0.25 M phosphate buffer with 0.2 mM DTPA at pH 7.4, 80% H2O, 10% D2O, and 10% DMSO-d6 at 37° C. under argon. Spectra were collected at the start of the experiment and after complete decomposition.
To eliminate the possibility of direct attack of 3,4-dimethyl-1-phenyl-1H-pyrazol-5(4H)-one on the amidic nitrogen of hydroxamic acid moiety in Compound 1 through a SN2 reaction (Glover, S. A.; Rauk, A.; Buccigross, J. M.; Campbell. J. J.; Hammond, G. P.; Guoning, M.; Andrews. L. E.: Gillson, A. M. Can. J. Chem. 2005, 83, 1492-1509), the stability of Compound 11 in the presence of 4-(acetyl-O-methoxyoxime)-N-phenyl-3-methyl-pyrazolone was confirmed by ^1H NMR.

[6] = HNO yield at the half-life of the donor
[7] = HNO yield after complete decomposition of the donor

half-life at 5 mM [1] [h] | decomposition (UV-VIS, in words) [3] | pKa [4] | pKa ([3]; estimated from pH-dependent decomposition kinetic data, 37° C.) | stability in the presence of 4-(acetyl-O-methoxyoxime)-N-phenyl-3-methyl-pyrazolone [5] | Compound | % HNO [2, 6] | % HNO [2, 7]
0.417 |  |  | 10.7 |  | CO/N=C(\C)C1(N(O)C(=O)N(C)C)C(=O)N(c2ccccc2)N=C1C (stereo not shown) [Compound 5, 1-hydroxy-1-(4-(1-(methoxyimino)ethyl)-3-methyl-5-oxo-1-phenyl-4,5-dihydro-1H-pyrazol-4-yl)-3,3-dimethylurea] |  | >95^b %
0.767 |  |  |  |  | CO/N=C(\C)C1(N(O)C(=O)N(C)C)C(=O)N(C)N=C1C (stereo not shown) [Compound 6, 1-hydroxy-1-(4-(1-(methoxyimino)ethyl)-1,3-dimethyl-5-oxo-4,5-dihydro-1H-pyrazol-4-yl)-3,3-dimethylurea] |  | >95^b %
 |  |  |  | confirmed | CC(=O)N(O)C1(C)C(=O)N(c2ccccc2)N=C1C (stereo not shown) [Compound 11, N-hydroxy-N-(3,4-dimethyl-5-oxo-1-phenyl-4,5-dihydro-1H-pyrazol-4-yl)-acetamide] |  | 

The next lines start with the molecule.

Compound | half-life at 5 mM [1] [h] | decomposition (UV-VIS, in words) [3] | pKa [4] | pKa ([3]; estimated from pH-dependent decomposition kinetic data, 37° C.) | stability in the presence of 4-(acetyl-O-methoxyoxime)-N-phenyl-3-methyl-pyrazolone [5] | % HNO [2, 6] | % HNO [2, 7]
CO/N=C(\C)C1(N(O)C(C)=O)C(=O)N(c2ccccc2)N=C1C (stereo not shown) [Compound 1, N-hydroxy-N-(4-(1-(methoxyimino)ethyl)-3-methyl-5-oxo-1-phenyl-4,5-dihydro-1H-pyrazol-4-yl)acetamide] | 120 | stable for 1 hour | 10 |  |  | 82^a % | 
CO/N=C(\C)C1(N(O)C(=O)OC)C(=O)N(c2ccccc2)N=C1C (stereo not shown) [Compound 3, Methyl hydroxy(4-(1-(methoxyimino)ethyl)-3-methyl-5-oxo-1-phenyl-4,5-dihydro-1H-pyrazol-4-yl)carbamate] | 48 | decomposed slowly | 9.1 |  |  | 104^a % | 
CO/N=C(\C)C1(N(O)C(=O)OC)C(=O)N(C)N=C1C (stereo not shown) [Compound 4, Methyl hydroxy(4-(1-(methoxyimino)ethyl)-1,3-dimethyl-5-oxo-4,5-dihydro-1H-pyrazol-4-yl)carbamate] | 96 |  |  |  |  | 94^a % | 
